Values after ≈ are worked out from the molar mass of the structure shown. Read-outs that look alike come from different tables or passages of the source.
Columns and labels:
L1210 leukemia = assay: Lymphoid Leukemia L1210, survival of tumored mice; type: in vivo, CD2F1 mice; conditions: for response vs control in vivo at 25 mg/kg: 25 mg/kg i.p.; for response vs control in vivo at 400 mg/kg: 400 mg/kg i.p.; for response vs control in vivo at 200 mg/kg: 200 mg/kg i.p.
Procedure, shortened: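 Male CD2 F1 mice, six per group, received 10^5 L1210 cells i.p. on day 0. Compounds in hydroxypropylcellulose, saline/Tween 80 or saline were given i.p. at various doses once daily on days 1-9, with vehicle controls.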

[1] = tested on: human colon carcinoma cells HCT-15; assay: Human colon tumor test in vitro, HCT-15 cell growth inhibition; type: cell-based; conditions: for in vitro HCT-15 ID50 (50 percent inhibition of number of doublings): 4320 min; for IC50: Homo sapiens, HCT-15, 72 h, read-out: in vitro HCT-15 ID50 (50 percent inhibition of number of doublings)
Experimental: The compound of this invention were also tested for their ability to inhibit the growth of human colon carcinoma cells in vitro.
The human colon carcinoma cells, designated HCT-15, were derived from a specimen of an adenocarcinoma of human colon removed during surgery. The cells were grown in Roswell Park Medical Institute (RPMI) Medium 1640 supplemented with 10% heat inactivated fetal calf serum, penicillin (100 units/ml), streptomycin (100 μg/ml), gentamicin (20 μg/ml), fungizone (25 μg/ml), 0.075 percent sodium bicarbonate, […] 4-(2-hydroxyethyl)-1-piperazineethanesulfonic acid and […] N-tris(hydroxymethyl)methylglycine. […] On day 1 cells from sample dishes were harvested using trypsin (0.25%) treatment and counted with a hemocytometer to determine the number of cells per dish at the time of the addition of the compounds. Compounds of this invention were added in varying concentrations to other cultures. On day 4, treated and control cultures were harvested by trypsin treatment and the number of cells was determined. The number of doublings for the control cells was determined from the cell numbers on days 1 and 4. The ID50, the concentration of compound required to inhibit by 50 percent the number of doublings, was then calculated from the dose-response curve in which cell numbers were plotted on log-log paper against compound concentrations in micrograms per ml.

[2] = HCT-15 cells, compound day 1 to day 4
[3] = Mus musculus, L1210, ip, 720 h, read-out: L1210 Leukemia % T/C (median survival time)
[4] = Mus musculus, L1210, ip, 720 h, 37.5 mg/kg i.p., nonoptimal Q1DX9 instead of Q3DX9, read-out: L1210 Leukemia % T/C (median survival time)

Question: For Cc1c(-c2ccc(-c3ccc(F)cc3)cc2)nc2ccc(F)cc2c1C(=O)O [Example 121], which response vs control in vivo at 18 mg/kg (L1210 leukemia; Mus musculus, L1210, ip, 720 h, 18 mg/kg i.p., read-out: L1210 Leukemia % T/C (median survival time)) is on record?
Answer: Its response vs control in vivo at 18 mg/kg is 175%.

Question: And the “in vitro HCT-15 ID50 (50 percent inhibition of number of doublings)” value [1, 2]?
Answer: Its value is < 0.50 µg/mL.

Question: Which response vs control in vivo at 25 mg/kg (L1210 leukemia; [3]) does the source give for Cc1c(-c2ccc(-c3ccccc3)cc2)nc2ccc(Cl)cc2c1C(=O)O [Example 19] here?
Answer: The response vs control in vivo at 25 mg/kg was 234%.

Question: And the IC50 [1, 2]?
Answer: Its IC50 is < 0.5 µg/mL.

Question: Which results are given for Cc1c(-c2ccc(OCc3ccccc3)cc2)nc2ccc(F)cc2c1C(=O)O [Example 16]?
Answer: response vs control in vivo at 400 mg/kg (L1210 leukemia; [3]): 190%; IC50 [1, 2]: 1 µg/mL (≈ 2.58 µM)

Question: Cc1c(-c2ccc(C3CCCCC3)cc2)nc2c(Br)cc(Br)cc2c1C(=O)O [Example 136] was tested. Which response vs control in vivo at 25 mg/kg (L1210 leukemia; Mus musculus, L1210, ip, 720 h, nonoptimal Q1DX9 instead of Q3DX9, read-out: L1210 Leukemia % T/C (median survival time)) did it give?
Answer: The response vs control in vivo at 25 mg/kg was 103%.

Question: What about the “in vitro HCT-15 ID50 (50 percent inhibition of number of doublings)” value [1, 2] of the same molecule?
Answer: Its value is > 0.50 µg/mL.

Question: For Cc1c(-c2ccc(Oc3ccccc3)cc2)nc2ccc(F)cc2c1C(=O)O [Example 101], which response vs control in vivo at 50 mg/kg (L1210 leukemia; Mus musculus, L1210, ip, 720 h, 50 mg/kg i.p., read-out: L1210 Leukemia % T/C (median survival time)) is on record?
Answer: The response vs control in vivo at 50 mg/kg was 154%.

Question: What about the “in vitro HCT-15 ID50 (50 percent inhibition of number of doublings)” value [1, 2] of the same molecule?
Answer: Its value is 0.41 µg/mL.

Question: For Cc1ccc2nc(-c3ccc(C4CCCCC4)cc3)c(C)c(C(=O)O)c2c1 [Example 96], which response vs control in vivo at 37.5 mg/kg (L1210 leukemia; [4]) is on record?
Answer: Its response vs control in vivo at 37.5 mg/kg is 97%.

Question: And the “in vitro HCT-15 ID50 (50 percent inhibition of number of doublings)” value [1, 2]?
Answer: Its value is < 0.50 µg/mL.

Question: Which results are given for CCc1c(-c2ccc(-c3ccccc3)cc2)nc2ccc(F)cc2c1C(=O)O [Example 18]?
Answer: response vs control in vivo at 100 mg/kg (L1210 leukemia; Mus musculus, L1210, ip, 720 h, 100 mg/kg i.p., read-out: L1210 Leukemia % T/C (median survival time)): 185%; in vitro HCT-15 ID50 (50 percent inhibition of number of doublings) [1, 2]: < 0.50 µg/mL

Question: With Cc1c(-c2ccc(Oc3ccc(Cl)cc3)cc2)nc2ccc(F)cc2c1C(=O)O [Example 119] as the molecule, how does the “L1210 Leukemia % T/C (median survival time)” value (L1210 leukemia; 18 mg/kg i.p.) read?
Answer: The value was 170%.

Question: And the “in vitro HCT-15 ID50 (50 percent inhibition of number of doublings)” value [1, 2]?
Answer: The value was < 0.50 µg/mL.

Question: Which results are given for COc1cccc2c1C(=O)c1c(O)c3c(c(O)c1C2=O)C[C@@](O)(C(=O)CO)C[C@@H]3O[C@H]1C[C@H](N)[C@H](O)[C@H](C)O1 [Adriamycin, reference compound]?
Answer: response vs control in vivo at 2 mg/kg (L1210 leukemia; [3]): 183%; IC50 [1]: 0.01 µg/mL (≈ 0.0184 µM)

Question: Which results are given for Cc1ccc2nc(-c3ccc(C4CCCCC4)cc3)c(C)c(C(=O)O)c2c1 [Example 6]?
Answer: response vs control in vivo at 400 mg/kg (L1210 leukemia; [3]): 162%; in vitro HCT-15 ID50 (50 percent inhibition of number of doublings) [1, 2]: 0.24 µg/mL

Question: Which results are given for Cc1c(-c2ccc(Oc3ccccc3)cc2)nc2ccc(Br)cc2c1C(=O)O [Example 53]?
Answer: response vs control in vivo at 75 mg/kg (L1210 leukemia; Mus musculus, L1210, ip, 720 h, 75 mg/kg i.p., read-out: L1210 Leukemia % T/C (median survival time)): 136%; IC50 [1, 2]: < 0.5 µg/mL

Question: What does the source list for Cc1c(-c2ccc(-c3ccc(F)cc3F)cc2)nc2ccc(F)cc2c1C(=O)O [Example 188]?
Answer: response vs control in vivo at 12.5 mg/kg (L1210 leukemia; Mus musculus, L1210, ip, 720 h, 12.5 mg/kg i.p., read-out: L1210 Leukemia % T/C (median survival time)): 187%; IC50 [1, 2]: < 0.01 µg/mL

Question: How did the response vs control in vivo at 400 mg/kg (L1210 leukemia; [3]) turn out when CCc1c(-c2ccc(C(C)CC)cc2)nc2ccc(F)cc2c1C(=O)O (stereo not drawn) [Example 17] was run?
Answer: The response vs control in vivo at 400 mg/kg was 136%.

Question: And the “in vitro HCT-15 ID50 (50 percent inhibition of number of doublings)” value [1, 2]?
Answer: Its value is 0.65 µg/mL.

Question: What does the source list for Cc1c(-c2ccc(C3CCCCC3)cc2)nc2ccc(Cl)cc2c1C(=O)O [Example 3]?
Answer: response vs control in vivo at 400 mg/kg (L1210 leukemia; [3]): 207%; in vitro HCT-15 ID50 (50 percent inhibition of number of doublings) [1, 2]: 0.50 µg/mL

Question: How did the response vs control in vivo at 200 mg/kg (L1210 leukemia; [3]) turn out when CCc1c(-c2ccc(C3CCCCC3)cc2)nc2ccc(C)cc2c1C(=O)O [Example 15] was run?
Answer: The response vs control in vivo at 200 mg/kg was 158%.

Question: What about the IC50 [1, 2] of the same molecule?
Answer: Its IC50 is 0.28 µg/mL (≈ 0.75 µM).

Question: Which response vs control in vivo at 25 mg/kg (L1210 leukemia; [3]) does the source give for Cc1c(-c2ccc(-c3ccccc3)cc2)nc2ccc(F)c(Cl)c2c1C(=O)O [Example 81, 2-(4-Biphenyl)-5-chloro-6-fluoro-3-methyl-4-quinolinecarboxylic acid] here?
Answer: Its response vs control in vivo at 25 mg/kg is 191%.

Question: What about the IC50 [1, 2] of the same molecule?
Answer: The IC50 was < 0.5 µg/mL.

Question: For Cc1c(-c2ccc(-c3ccc(F)cc3)cc2)nc2ccc(F)cc2c1C(=O)O [Example 177], which “L1210 Leukemia % T/C (median survival time)” value (L1210 leukemia; 37.5 mg/kg i.p.) is on record?
Answer: The value was 172%.

Question: And the “in vitro HCT-15 ID50 (50 percent inhibition of number of doublings)” value [1, 2]?
Answer: Its value is < 0.50 µg/mL.

Question: How did the response vs control in vivo at 37.5 mg/kg (L1210 leukemia; [4]) turn out when Cc1c(-c2ccc(C3CCCCC3)cc2)nc2ccc(F)cc2c1C(=O)O [Example 181] was run?
Answer: Its response vs control in vivo at 37.5 mg/kg is 108%.

Question: And the “in vitro HCT-15 ID50 (50 percent inhibition of number of doublings)” value [1, 2]?
Answer: The value was < 0.50 µg/mL.

Question: How did the response vs control in vivo at 200 mg/kg (L1210 leukemia; [3]) turn out when O=C(O)c1cc(-c2ccc(C3CCCCC3)cc2)nc2ccc(Cl)cc12 [Example 4] was run?
Answer: Its response vs control in vivo at 200 mg/kg is 128%.

Question: And the IC50 [1, 2]?
Answer: Its IC50 is 0.48 µg/mL (≈ 1.31 µM).

Question: How did the response vs control in vivo at 200 mg/kg (L1210 leukemia; [3]) turn out when CCc1c(-c2ccc(C3CCCCC3)cc2)nc2ccc(F)cc2c1C(=O)O [Example 10] was run?
Answer: The response vs control in vivo at 200 mg/kg was 163%.

Question: And the “in vitro HCT-15 ID50 (50 percent inhibition of number of doublings)” value [1, 2]?
Answer: Its value is 0.03 µg/mL.

Question: With Cc1c(-c2ccc(-c3ccccc3)cc2)nc2cc(Cl)ccc2c1C(=O)O [Example 49] as the molecule, how does the response vs control in vivo at 200 mg/kg (L1210 leukemia; [3]) read?
Answer: The response vs control in vivo at 200 mg/kg was 174%.

Question: What about the IC50 [1, 2] of the same molecule?
Answer: The IC50 was > 5 µg/mL.

From US5032597A, “Method of using phenylquinolinecarboxylic acids and derivatives for lymthoid leukemia treatment in a mammal” (priority 1987, dated 1991)
